In paper PMC9519446, “Discovery of an Orally Active Benzoxaborole Prodrug Effective in the Treatment of Chagas Disease in Non-human Primates” (Nature microbiology, 2022):
Values joined by “and” are separate entries in the source; they are usually repeats but may differ in a detail not shown here. Equal entries are not always repeated.

Assay: NHP health screening: hematology (CBC)
Format: in vivo, rhesus macaques (Macaca mulatta)
[1] = treated female macaques, post-dosing bleed, Mean
[2] = treated macaques, end of study bleed, individual animals

## Cc1c(C(=O)N[C@H](C(=O)OCC2CCOCC2)C(C)C)ccc2c1B(O)OC2 [AN15368]
[1]
  Eos: 0.09 10^3/µL
  Hct: 40.5389%
  Hgb: 13.0722 G/Dl
  Lymp: 2.497 10^3/µL
  Mch: 23.6944 Pgs
  Mchc: 32.2333 G/Dl
  Mcv: 73.5333 fL
  Mono: 0.2561 10^3/µL
  Mpv: 7.553 fL
  Neut: 2.507 10^3/µL
  Plt: 330.353 10^3/µL
  Rbc: 5.521 10^6/µL
  Rdw: 12.4778%
  Wbc: 5.361 10^3/µL
[2]
  Baso: 0.01 10^3/µL and 0.02 10^3/µL and 0 10^3/µL
  Eos: 0.07 10^3/µL and 0.12 10^3/µL and 0.02 10^3/µL and 0.06 10^3/µL and 0.17 10^3/µL and 0.01 10^3/µL and 0.05 10^3/µL and 0.21 10^3/µL and 0.16 10^3/µL and 0.03 10^3/µL
  Hct: 39.5% and 45.3% and 41.2% and 45.7% and 43.1% and 42.5% and 44.2% and 44% and 41.8% and 40.4% and 42.9% and 44.8% and 39.8%
  Hgb: 11.9 G/Dl and 14.7 G/Dl and 12.8 G/Dl and 14.6 G/Dl and 13.3 G/Dl and 13.2 G/Dl and 13.6 G/Dl and 13.7 G/Dl and 13.1 G/Dl and 13 G/Dl and 12.9 G/Dl and 13.4 G/Dl and 12.3 G/Dl
  Lymp: 1.75 10^3/µL and 3.93 10^3/µL and 1.62 10^3/µL and 3.5 10^3/µL and 2.42 10^3/µL and 0.76 10^3/µL and 1.4 10^3/µL and 2.46 10^3/µL and 2.32 10^3/µL and 1.59 10^3/µL and 0.91 10^3/µL and 2.37 10^3/µL and 1.53 10^3/µL and 1.63 10^3/µL
  Mch: 21.9 Pgs and 22.2 Pgs and 23.6 Pgs and 24.2 Pgs and 22.7 Pgs and 21.7 Pgs and 21.5 Pgs and 23.8 Pgs and 22.4 Pgs and 22.3 Pgs and 22.5 Pgs and 22.9 Pgs
  Mchc: 30.1 G/Dl and 32.5 G/Dl and 31.1 G/Dl and 31.9 G/Dl and 30.9 G/Dl and 30.8 G/Dl and 29.6 G/Dl and 31.6 G/Dl and 32.2 G/Dl and 29.9 G/Dl
  Mcv: 72.3 fL and 68.2 fL and 75.6 fL and 75.7 fL and 73.4 fL and 69.9 fL and 73.5 fL and 73.1 fL and 75.2 fL and 69.2 fL and 74.1 fL and 75.4 fL and 74.4 fL
  Mono: 0.25 10^3/µL and 0.23 10^3/µL and 0.17 10^3/µL and 0.37 10^3/µL and 0.36 10^3/µL and 0.48 10^3/µL and 0.3 10^3/µL and 0.21 10^3/µL and 0.2 10^3/µL and 0.44 10^3/µL and 0.26 10^3/µL and 0.29 10^3/µL and 0.12 10^3/µL
  Mpv: 6.3 fL and 7.4 fL and 8.1 fL and 9.7 fL and 8.4 fL and 7 fL and 6.5 fL and 7.9 fL and 7.2 fL and 6.9 fL and 7.3 fL and 6.4 fL
  Neut: 1.44 10^3/µL and 1.12 10^3/µL and 1.09 10^3/µL and 1.69 10^3/µL and 4.26 10^3/µL and 8.57 10^3/µL and 5.95 10^3/µL and 2.2 10^3/µL and 1.94 10^3/µL and 1.95 10^3/µL and 8.94 10^3/µL and 3.94 10^3/µL and 6.95 10^3/µL and 1.75 10^3/µL
  Plt: 418 10^3/µL and 361 10^3/µL and 262 10^3/µL and 246 10^3/µL and 276 10^3/µL and 221 10^3/µL and 490 10^3/µL and 360 10^3/µL and 283 10^3/µL and 257 10^3/µL and 336 10^3/µL and 367 10^3/µL and 446 10^3/µL and 324 10^3/µL
  Rbc: 5.46 10^6/µL and 6.64 10^6/µL and 5.45 10^6/µL and 6.04 10^6/µL and 5.87 10^6/µL and 6.08 10^6/µL and 6.01 10^6/µL and 6.02 10^6/µL and 6.11 10^6/µL and 5.56 10^6/µL and 5.84 10^6/µL and 5.79 10^6/µL and 5.94 10^6/µL and 5.35 10^6/µL
  Rdw: 13.4% and 11.4% and 12.4% and 11.5% and 12.2% and 12.3% and 12.8% and 11.8%
  Wbc: 3.51 10^3/µL and 5.42 10^3/µL and 2.91 10^3/µL and 5.63 10^3/µL and 7.21 10^3/µL and 9.83 10^3/µL and 7.73 10^3/µL and 5.19 10^3/µL and 4.54 10^3/µL and 3.78 10^3/µL and 10.31 10^3/µL and 6.74 10^3/µL and 8.9 10^3/µL and 3.54 10^3/µL
